Experimental data taken from patent US5556996A, “Oxiranyls disubstituted with a phenyl group and a substituted chromanyl or tetrahydroquinolinyl group having retinoid like activity” (Allergan, priority 1994, dated 1996).

Tested on: ornithine decarboxylase (ODC)
Assay: Inhibition of TPA induction of ornithine decarboxylase (ODC assay)
Assay type: biochemical
Settings: TPA-induced ODC activity
Description: The retinoic acid-like activity of these compounds is confirmed through the classic measure of retinoic acid activity involving the effects of retinoic acid on ornithine decarboxylase. The original work on the correlation between retinoic acid and decrease in cell proliferation was done by Verma & Boutwell, Cancer Research, 1977, 37,2196-2201. That reference discloses that ornithine decarboxylase (ODC) activity increased precedent to polyamine biosynthesis. It has been established elsewhere that increases in polyamine synthesis can be correlated or associated with cellular proliferation. Thus, if ODC activity could be inhibited, cell hyperproliferation could be modulated. Although all cases for ODC activity increases are unknown, it is known that 12-0-tetradecanoylphorbol-13-acetate (TPA) induces ODC activity. Retinoic acid inhibits this induction of ODC activity by TPA. […] Activity of exemplary compounds of the present invention in the above-described ODC assay is disclosed in Table 1 which provides IC80 data for the exemplary compounds. ("IC80 " is that concentration of the test compound which causes 80% inhibition in the ODC assay).

| IC80 conc (concentration of the test compound which causes 80% inhibition in the ODC assay) [nmols] | SMILES |
| --- | --- |
| > 300 | CCOC(=O)c1ccc([C@@H]2O[C@@]2(C)c2ccc3c(c2)C(C)(C)CC(C)(C)O3)cc1 (relative stereo) [Compound 1, Ethyl(±)-(E)-4-[2-methyl-2-(2,2,4,4-tetramethylchroman-6-yl)oxiran-1-yl]benzoate] |
| 73 | CC1(C)CC(C)(C)c2cc([C@]3(C)O[C@H]3c3ccc(C(=O)O)cc3)ccc2O1 (relative stereo) [Compound 2, (±)-(E)T4-[2-methyl-2-(2,2,4,4-tetramethylchroman-6-yl)oxiran-1-yl]benzoic acid] |
